# “Also recorded” adds a separate entry of the source.
# Legend:
# [1] = je nach Test; literature (Vitamins and Hormons 38, 1980; J. Med. Chem. 25, 1982); cited from earlier work
# [2] = Blood pressure lowering in a hypertensive person after intranasal dosing; assay type: in vivo, Mensch; settings: for systolischer Blutdruck: hypertensive person, 100 µg intranasal, baseline etwa 150 mm Hg
# Excerpt: (§1) In Ratten wurde durch eine Ca^2+-Gluconat-Infusion der Plasma-Ca^2+-Spiegel erhöht. Durch diese Infusion wird der PTH-Spiegel suppremiert (The New England J. Med. 307, 1982, S. 226 - 228). Eine Bolusinjektion der Gonadoliberinagonisten erhöhte jedoch signifikant den PTH-Spiegel gegenüber den Kontrollen und potenzierte das Plasma-Ca^2+. Das 30 Minuten nach der Injektion der Gonadoliberinagonisten erhöhte PTH bewirkte nach 60 Minuten einen signifikanten Serum-Ca^2+-Anstieg. Daß diese Beeinflußung des Plasma-Ca^2+-Spiegels durch endogenes PTH oder PTH selbst einen Einfluß auf den Blutdruck hat, wurde an einer Frau mit zu hohem Blutdruck überprüft. Nach einmaliger intranasaler Gabe von 100 mcg Gonadoliberin, was bei einer Resorptionsrate von 2 - 5 % also nur etwa 2 - 5 mcg resorbierten Gonadoliberins entspricht, konnte der erhöhte Blutdruck 8 Stunden lang stark gesenkt werden.
# Eine hypertensive, 48 Jahre alte Frau, deren Bluthochdruck mit ß-Blockern behandelt wird, setzte ihre Be-.handlung am Versuchstag aus. Versuchsbeginn: 17.00 Uhr.
# Der systolische Blutdruck von etwa 150 mm Hg sank nach intranasaler Gabe von 100 µg Gonadoliberin innerhalb von 30 Minuten auf etwa 125 mm Hg, blieb 90 Minuten bei 125 mm Hg und stieg dann für die nächsten 4 Stunden auf 130 mm Hg. Nach einer 8-stündigen Bettruhe, während der die Versuchsperson ausgezeichnet schlief, war der Blutdruck auf etwa 137 mm Hg gestiegen.
# [3] = Intranasal absorption of Gonadoliberin; assay type: in vivo, Mensch; settings: intranasal dose of 100 mcg, calculated from the Resorptionsrate
# [4] = Treatment of muscle pain (McArdle-Erkrankung) in a person, intranasal dosing; assay type: in vivo, Mensch
# Excerpt: […] mit starken Muskelschmerzen am Oberarm (McArdle-Erkrankung) gab man 100 mcg Gonadoliberin intra- nasal. Die starken Dauerschmerzen verschwanden nach etwa 15 Minuten. Am Anfang der Behandlung wurde mehrmals täglich (3 mal), später 2 mal und dann nur noch einmal täglich appliziert um einer Tachyphylaxie vorzubeugen. […] Der anfangs sehr schwache Blutdruck der Patientin von 90/60 wurde interessanterweise nicht weiter gesenkt, sondern leicht erhöht, so daß er sich während der Therapie auf 110/65 einpendelte. Diese kleinen Gonadoliberindosen wirken also nicht generell blutdrucksenkend ', sondern können auch bei niedrigem Blutdruck blutdruckerhöhend wirken.
# Eine Frau, 46 Jahre alt, hatte starke Schmerzen im Oberarm. Der Arm konnte nicht vom Körper weg bewegt werden. Nach einer intranasalen Applikation von 100 µg Gonadoliberin war der Dauerschmerz in Ruhehaltung verschwunden. Der sehr schwache Blutdruck von 90/60 stieg während der Behandlung mit Gonadoliberin auf 110/65. Am ersten Tag wurde insgesamt 3 mal, am zweiten und dritten Tag 2 mal und am vierten und folgenden Tagen nur noch einmal täglich am Morgen therapiert. Im Lauf der Therapie wurden auch die Bewegungsschmerzen weniger und der Arm konnte wieder normal bewegt werden.
# Parathormon = experiment: Plasma levels of parathormone and Ca2+ in Ca2+-infused anaesthetised rats after i.v. injection; assay type: in vivo, Wistarratten; settings: for Stimulierung des PTH: Ratten
# Excerpt: as §1
# Zwei Gruppen von je 31 Wistarratten wurden mit Pentobarbital (45 mg/kg i.p.) narkotisiert. Man entnahm von allen Tieren eine Blutprobe (Ausgangswert). […] Nach 30, 60, 90, 120 und 180 Minuten wurde ein Teil der Tiere getötet und entblutet. Das Blutserum wurde auf Ca^2+ und Parathormon untersucht.
# In beiden-Figuren ist bei den einzelnen Meßpunkten die Anzahl n der Messungen sowie die Standardabweichung des Meßwertes (graphisch) angegeben.
# Plasma-Glucose = settings: Kaninchen, Glucosebolus 500 mg/kg i.v.; 5 ng/kg i.v.; after 70 - 90 Minuten; Verum-Gruppe vs Placebo-Gruppe
# Experimental: Der Einfluß auf den Blutzucker. wurde zunächst an Kaninchen überprüft. Kaninchen wurden zur Hemmung des endogen Glucagons mit einem Glucosebolus versehen.
# Je 3 wachen Kaninchen gab man einen Glucosebolus (500 mg/ kg i.v.). […] Nach 10, 30, 40, 50, 60, 70, 80 und 90 Minuten wurde Blut abgenommen und daraus die Blutglucose bestimmt.
# Bei den einzelnen Meßpunkten ist jeweils graphisch die Standardabweichung des Meßwertes angegeben (n ist jeweils 3).
# [5] = person with high blood pressure, single intranasal dose of 100 mcg
compound,measurement,setting,value
CC(C)C[C@H](NC(=O)[C@@H](Cc1ccc2ccccc2c1)NC(=O)[C@H](Cc1ccc(O)cc1)NC(=O)[C@H](CO)NC(=O)[C@H](Cc1c[nH]c2ccccc12)NC(=O)[C@H](Cc1cnc[nH]1)NC(=O)[C@@H]1CCC(=O)N1)C(=O)N[C@@H](CCCNC(=N)N)C(=O)N1CCC[C@H]1C(=O)NCC(N)=O [[D-3-(2-Naphthyl)-Ala^6] Gonadoliberin],Wirkung relative to Gonadoliberin (mal stärker),[1],noch höhere Aktivitäten
Cc1cc(C)c(C[C@@H](NC(=O)[C@H](Cc2ccc(O)cc2)NC(=O)[C@H](CO)NC(=O)[C@H](Cc2c[nH]c3ccccc23)NC(=O)[C@H](Cc2cnc[nH]2)NC(=O)[C@@H]2CCC(=O)N2)C(=O)N[C@@H](CC(C)C)C(=O)N[C@@H](CCCNC(=N)N)C(=O)N2CCC[C@H]2C(=O)NCC(N)=O)c(C)c1 [[D-3-(2.4.6.Trimethylphenyl)-Ala^6]-Gonadoliberin],Wirkung relative to Gonadoliberin (mal stärker),[1],noch höhere Aktivitäten
CC(C)C[C@H](NC(=O)CNC(=O)[C@H](Cc1ccc(O)cc1)NC(=O)[C@H](CO)NC(=O)[C@H](Cc1c[nH]c2ccccc12)NC(=O)[C@H](Cc1cnc[nH]1)NC(=O)[C@@H]1CCC(=O)N1)C(=O)N[C@@H](CCCNC(=N)N)C(=O)N1CCC[C@H]1C(=O)NCC(N)=O [Gonadoliberin],systolischer Blutdruck,[2]; after a subsequent 8-hour bed rest,~137 mm Hg
same,systolischer Blutdruck,[2]; maintained for 90 Minuten after the fall,125 mm Hg
same,systolischer Blutdruck,[2]; the following 4 Stunden,130 mm Hg
same,systolischer Blutdruck,[2]; within 30 Minuten,~125 mm Hg
same,duration of blood pressure lowering,[2]; [5],8 Stunden
same,erhöhter Blutdruck,[2]; [5],stark gesenkt
same,resorbiertes Gonadoliberin,[3],2 to 5 µg
same,time until the starke Dauerschmerzen disappeared,"[4]; person with muscle pain in the upper arm (McArdle-Erkrankung), 100 mcg intranasal",~15 Minuten
same,Bewegungsschmerzen / movement of the arm,"[4]; person with muscle pain, 100 µg intranasal 3 to 1 times daily, in the course of therapy",ohne Schmerzen bewegt; also recorded: weniger
same,Blutdruck,"[4]; person with muscle pain, 100 µg intranasal, during therapy, baseline 90/60",110/65
same,Dauerschmerz in Ruhehaltung,"[4]; person, upper arm pain, 100 µg intranasal",verschwunden
same,Stimulierung des PTH,Parathormon; dose 50 ng/kg,stimulieren
[D-Ser(Bu^t) ^6] Gonadoliberin-(1-9)-nonapeptid-ethylamid [Buserelin],Blutglucosewerte,Plasma-Glucose,signifikant erhöht
same,Stimulierung des PTH,Parathormon; dose 5 ng/kg,stimulieren
same,Parathormon im Blutserum,"Parathormon; Wistarratten, Ca2+-Infusion 30 mg/kg/h, 5 ng/kg i.v., after 30 Minuten, Verum-Gruppe vs Placebogruppe",signifikant an
same,Ca^2+-Spiegel im Blutserum,"Parathormon; Wistarratten, Ca2+-Infusion 30 mg/kg/h, 5 ng/kg i.v., after 60 Minuten, Verum-Gruppe vs Placebogruppe",deutlich erhöht
